In PubChem BioAssay AID2060622 (Molecular Pharmacology Branch, DTP, NCI, 2025):
Where “and” joins values, the source holds several entries; their conditions need not be identical. Equal entries are not always repeated. Blank lines part the entries; values can stand above or below the compound they belong to.

System: 242566-281-R-J2-PDC complex spheroid viability
Assay: Anticancer human tumor 242566-281-R-J2-PDC patient-derived pancreatic carcinoma cell line growth inhibition [CLK]
Conditions: for viability, T/C: stronger effect = lower value
Summary of the method: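 Patient-derived tumor cells grown as complex spheroids with HUVEC endothelial cells and mesenchymal stem cells, treated with drug combinations. Concentrations descend in half-log steps from near clinical Cmax, or from 10 microM if Cmax unknown.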

[1] = curve of first compound, second compound 0.0316 µM
[2] = curve of first compound, second compound 0.1 µM
[3] = curve of first compound, second compound 0.316 µM
[4] = curve of first compound, second compound 1 µM
[5] = curve of first compound, second compound 3.16 µM
[6] = curve of first compound, second compound 10 µM
[7] = second compound 0.0316 µM, first compound 0.0316 µM
[8] = second compound 0.0316 µM, first compound 0.1 µM
[9] = second compound 0.0316 µM, first compound 0.316 µM
[10] = second compound 0.0316 µM, first compound 1 µM
[11] = second compound 0.0316 µM, first compound 3.16 µM
[12] = second compound 0.0316 µM, first compound 10 µM
[13] = second compound 0.1 µM, first compound 0.0316 µM
[14] = second compound 0.1 µM, first compound 0.1 µM
[15] = second compound 0.1 µM, first compound 0.316 µM
[16] = second compound 0.1 µM, first compound 1 µM
[17] = second compound 0.1 µM, first compound 3.16 µM
[18] = second compound 0.1 µM, first compound 10 µM
[19] = second compound 0.316 µM, first compound 0.0316 µM
[20] = second compound 0.316 µM, first compound 0.1 µM
[21] = second compound 0.316 µM, first compound 0.316 µM
[22] = second compound 0.316 µM, first compound 1 µM
[23] = second compound 0.316 µM, first compound 3.16 µM
[24] = second compound 0.316 µM, first compound 10 µM
[25] = second compound 1 µM, first compound 0.0316 µM
[26] = second compound 1 µM, first compound 0.1 µM
[27] = second compound 1 µM, first compound 0.316 µM
[28] = second compound 1 µM, first compound 1 µM
[29] = second compound 1 µM, first compound 3.16 µM
[30] = second compound 1 µM, first compound 10 µM
[31] = second compound 3.16 µM, first compound 0.0316 µM
[32] = second compound 3.16 µM, first compound 0.1 µM
[33] = second compound 3.16 µM, first compound 0.316 µM
[34] = second compound 3.16 µM, first compound 1 µM
[35] = second compound 3.16 µM, first compound 3.16 µM
[36] = second compound 3.16 µM, first compound 10 µM
[37] = second compound 10 µM, first compound 0.0316 µM
[38] = second compound 10 µM, first compound 0.1 µM
[39] = second compound 10 µM, first compound 0.316 µM
[40] = second compound 10 µM, first compound 1 µM
[41] = second compound 10 µM, first compound 3.16 µM
[42] = second compound 10 µM, first compound 10 µM
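Note: spheroids exposed to compounds for 7 days before readout.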
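Throughout, for viability, T/C: 100% = DMSO vehicle control wells.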

SMILES: CC1COCCN1c1cc(C2(S(C)(=N)=O)CC2)nc(-c2ccnc3[nH]ccc23)n1 (stereo not given) + CN1CCN(c2cc(C(=O)Nc3cc4cc(-c5cnn(C)c5)ccc4cn3)ccn2)CC1
- IC50 [1]: 6190 nM
- IC50 [2]: 4500 nM
- IC50 [3]: < 31.6 nM
- IC50 [4]: < 31.6 nM
- IC50 [5]: < 31.6 nM
- IC50 [6]: < 31.6 nM
- viability, T/C [7]: 119%
- viability, T/C [8]: 103%
- viability, T/C [9]: 97%
- viability, T/C [10]: 104%
- viability, T/C [11]: 73.8%
- viability, T/C [12]: 31.6%
- viability, T/C [13]: 103%
- viability, T/C [14]: 97.8%
- viability, T/C [15]: 97.3%
- viability, T/C [16]: 83.1%
- viability, T/C [17]: 62.6%
- viability, T/C [18]: 22.6%
- viability, T/C [19]: 36.3%
- viability, T/C [20]: 28.3%
- viability, T/C [21]: 31.2%
- viability, T/C [22]: 20.4%
- viability, T/C [23]: 17.5%
- viability, T/C [24]: 8.72%
- viability, T/C [25]: 4.95%
- viability, T/C [26]: 4.97%
- viability, T/C [27]: 4.82%
- viability, T/C [28]: 5.18%
- viability, T/C [29]: 5.87%
- viability, T/C [30]: 6.94%
- viability, T/C [31]: 7.02%
- viability, T/C [32]: 7.62%
- viability, T/C [33]: 8.37%
- viability, T/C [34]: 7.12%
- viability, T/C [35]: 8.01%
- viability, T/C [36]: 9.37%
- viability, T/C [37]: 2.02%
- viability, T/C [38]: 1.85%
- viability, T/C [39]: 2.1%
- viability, T/C [40]: 1.7%
- viability, T/C [41]: 1.8%
- viability, T/C [42]: 1.35%

SMILES: CCc1c2c(nc3ccc(O)cc13)-c1cc3c(c(=O)n1C2)COC(=O)[C@]3(O)CC
- viability, T/C (compound 0.00316 µM): 87.2% and 108%
- viability, T/C (compound 0.01 µM): 56.3% and 60%
- viability, T/C (compound 0.0316 µM): 30.8% and 39%
- viability, T/C (compound 0.1 µM): 12.3% and 15.7%
- viability, T/C (compound 0.316 µM): 5.72% and 5.99%
- viability, T/C (compound 1 µM): 2.95% and 2.38%
- IC50 (curve of compound): 13.4 nM and 16.9 nM

Further lines, with some results ahead:

- IC50 [1]: < 31.6 nM
- IC50 [2]: > 10000 nM
- IC50 [3]: > 10000 nM
- IC50 [4]: > 10000 nM
- IC50 [5]: < 31.6 nM
- IC50 [6]: < 31.6 nM
SMILES: CC(=O)O[C@H]1C(=O)[C@@]2(C)[C@H]([C@H](OC(=O)c3ccccc3)[C@]3(O)C[C@H](OC(=O)[C@H](O)[C@@H](NC(=O)c4ccccc4)c4ccccc4)C(C)=C1C3(C)C)[C@]1(OC(C)=O)CO[C@@H]1C[C@@H]2O + CNC(=O)c1ccc(Nc2nc(OC3CCCC3)c3c(-c4ccc5nc(C)oc5c4)c[nH]c3n2)c(OC)c1
- viability, T/C [7]: 61%
- viability, T/C [8]: 47.7%
- viability, T/C [9]: 42%
- viability, T/C [10]: 41.7%
- viability, T/C [11]: 46%
- viability, T/C [12]: 72.3%
- viability, T/C [13]: 84.7%
- viability, T/C [14]: 66.2%
- viability, T/C [15]: 53.2%
- viability, T/C [16]: 61.9%
- viability, T/C [17]: 70.7%
- viability, T/C [18]: 108%
- viability, T/C [19]: 91.7%
- viability, T/C [20]: 95%
- viability, T/C [21]: 86.2%
- viability, T/C [22]: 92%
- viability, T/C [23]: 115%
- viability, T/C [24]: 94.6%
- viability, T/C [25]: 62.3%
- viability, T/C [26]: 56.6%
- viability, T/C [27]: 52.2%
- viability, T/C [28]: 51.6%
- viability, T/C [29]: 50.7%
- viability, T/C [30]: 56.2%
- viability, T/C [31]: 51%
- viability, T/C [32]: 40.9%
- viability, T/C [33]: 43.1%
- viability, T/C [34]: 45.2%
- viability, T/C [35]: 46.3%
- viability, T/C [36]: 43%
- viability, T/C [37]: 43%
- viability, T/C [38]: 36.4%
- viability, T/C [39]: 43.7%
- viability, T/C [40]: 46.2%
- viability, T/C [41]: 43.4%
- viability, T/C [42]: 44.8%

- IC50 (curve of compound): < 31.6 nM and 60.1 nM
SMILES: CC(=O)O[C@H]1C(=O)[C@@]2(C)[C@H]([C@H](OC(=O)c3ccccc3)[C@]3(O)C[C@H](OC(=O)[C@H](O)[C@@H](NC(=O)c4ccccc4)c4ccccc4)C(C)=C1C3(C)C)[C@]1(OC(C)=O)CO[C@@H]1C[C@@H]2O
- viability, T/C (compound 0.0316 µM): 34.2% and 57.7%
- viability, T/C (compound 0.1 µM): 33.9% and 45%
- viability, T/C (compound 0.316 µM): 28.5% and 35.4%
- viability, T/C (compound 1 µM): 23.9% and 38.6%
- viability, T/C (compound 3.16 µM): 32.5% and 40%
- viability, T/C (compound 10 µM): 34.1% and 56.3%

- IC50 [1]: > 300 nM
- IC50 [2]: > 300 nM
- IC50 [3]: > 300 nM
- IC50 [4]: > 300 nM
- IC50 [5]: 2.72 nM
- IC50 [6]: 3.17 nM
SMILES: C=CC(=O)Nc1cc(Nc2nccc(-c3cn(C)c4ccccc34)n2)c(OC)cc1N(C)CCN(C)C + CNC(=O)c1ccc(Nc2nc(OC3CCCC3)c3c(-c4ccc5nc(C)oc5c4)c[nH]c3n2)c(OC)c1
- viability, T/C (second compound 0.0316 µM, first compound 0.000949 µM): 83.7%
- viability, T/C (second compound 0.0316 µM, first compound 0.003 µM): 97%
- viability, T/C (second compound 0.0316 µM, first compound 0.00949 µM): 101%
- viability, T/C (second compound 0.0316 µM, first compound 0.03 µM): 108%
- viability, T/C (second compound 0.0316 µM, first compound 0.0949 µM): 110%
- viability, T/C (second compound 0.0316 µM, first compound 0.3 µM): 92.8%
- viability, T/C (second compound 0.1 µM, first compound 0.000949 µM): 96.1%
- viability, T/C (second compound 0.1 µM, first compound 0.003 µM): 81.7%
- viability, T/C (second compound 0.1 µM, first compound 0.00949 µM): 80.1%
- viability, T/C (second compound 0.1 µM, first compound 0.03 µM): 99.5%
- viability, T/C (second compound 0.1 µM, first compound 0.0949 µM): 95.5%
- viability, T/C (second compound 0.1 µM, first compound 0.3 µM): 81.4%
- viability, T/C (second compound 0.316 µM, first compound 0.000949 µM): 89.4%
- viability, T/C (second compound 0.316 µM, first compound 0.003 µM): 76%
- viability, T/C (second compound 0.316 µM, first compound 0.00949 µM): 72.2%
- viability, T/C (second compound 0.316 µM, first compound 0.03 µM): 77.6%
- viability, T/C (second compound 0.316 µM, first compound 0.0949 µM): 81.4%
- viability, T/C (second compound 0.316 µM, first compound 0.3 µM): 80.2%
- viability, T/C (second compound 1 µM, first compound 0.000949 µM): 69.7%
- viability, T/C (second compound 1 µM, first compound 0.003 µM): 59%
- viability, T/C (second compound 1 µM, first compound 0.00949 µM): 58.9%
- viability, T/C (second compound 1 µM, first compound 0.03 µM): 61.8%
- viability, T/C (second compound 1 µM, first compound 0.0949 µM): 63.7%
- viability, T/C (second compound 1 µM, first compound 0.3 µM): 57.5%
- viability, T/C (second compound 3.16 µM, first compound 0.000949 µM): 55.9%
- viability, T/C (second compound 3.16 µM, first compound 0.003 µM): 50%
- viability, T/C (second compound 3.16 µM, first compound 0.00949 µM): 45.7%
- viability, T/C (second compound 3.16 µM, first compound 0.03 µM): 51.9%
- viability, T/C (second compound 3.16 µM, first compound 0.0949 µM): 46.4%
- viability, T/C (second compound 3.16 µM, first compound 0.3 µM): 48.8%
- viability, T/C (second compound 10 µM, first compound 0.000949 µM): 49.1%
- viability, T/C (second compound 10 µM, first compound 0.003 µM): 51.2%
- viability, T/C (second compound 10 µM, first compound 0.00949 µM): 51.1%
- viability, T/C (second compound 10 µM, first compound 0.03 µM): 47.7%
- viability, T/C (second compound 10 µM, first compound 0.0949 µM): 43.1%
- viability, T/C (second compound 10 µM, first compound 0.3 µM): 44.9%
